The values below are quoted from earlier work in patent US10413588B2, “Probiotic function of human intelectin” (Wisconsin Alumni Research Foundation, priority 2015, dated 2019).

SMILES strings stand for the structures. pKd: −log10 of the molar value.

This series addresses hIntL-1 (Homo sapiens, UniProt Q8WWA0). The settings on record: reported by Tsuji et al., 2001; read-out: apparent KD / apparent affinity for hIntL-1.

Chain of hIntL-1 (Q8WWA0 19-298): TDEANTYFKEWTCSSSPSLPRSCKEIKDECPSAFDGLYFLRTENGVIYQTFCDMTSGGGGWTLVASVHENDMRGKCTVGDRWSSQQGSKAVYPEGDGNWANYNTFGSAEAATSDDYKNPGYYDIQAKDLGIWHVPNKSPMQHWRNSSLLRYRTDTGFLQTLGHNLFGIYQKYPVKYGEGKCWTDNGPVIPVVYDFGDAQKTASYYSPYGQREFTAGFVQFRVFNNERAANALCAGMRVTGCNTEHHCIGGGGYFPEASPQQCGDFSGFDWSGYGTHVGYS

Regarding `O=C[C@H](O)[C@H](O)[C@H](O)CO` [D-ribose], the pKd was 2.30.
